Measurements published in patent publication US20050008751A1, “Fermented milk product” (Unilever Bestfoods, North America, priority 2001, published 2005).

Each substance was assayed on ACE (assay: ACE inhibition (IC50) of synthesized peptides).
Format: biochemical
Description: The ACE inhibition activity was assayed according to the method 15 of Matsui et al. (Matsui, T. et al. (1992) Biosci. Biotech. Biochem. 56: 517-518) with the modifications described below.
For each sample 75 μl 3 mM hippuryl histidine leucine (Hip-His-Leu, Sigma chemicals Co.; the chemical was dissolved in 250 mM Borate containing 200 mM NaCl, pH 8.3); 20 μl 0.1 U/ml ACE (obtained at Sigma) or H2 O, and 25 μl sample or H2O were mixed (see Table 1). The mixtures were incubated at 37° C. and stopped after 30 min by adding 125 μl 0.5 M HCl. Subsequently, 225 μl bicine/NaOH solution (1 M NaOH : 0.25 M bicine (4:6)) was added, followed by […] 0.1 M TNBS (2,4,6-Trinitrobenzenesulfonic acid, Fluka, Switzerland; in 0.1 M Na2HPO4). After incubation for 20 min. at 37° C., 4 ml 4 mM Na2SO3 in 0.2 M NaH2PO4 was added and the absorbance at 416 nm was measured with UV/Vis spectrophotometer (Shimadzu UV-1601 with a CPS controller, Netherlands). The amount of ACE inhibition (ACEI) activity was calculated as a percentage of inhibition compared with the conversion rate of ACE in the absence of an inhibitor: ACEI (%) (((C1-C2)-(S1-S2))/(C1-C2))*100 (1) wherein • C1=Absorbance without ACE inhibitory component (=max. ACE activity) [AU]. • C2=Absorbance without ACE inhibitory component and without ACE (background) [AU]. • S1=Absorbance in the presence of ACE and the ACE inhibitory component [AU]. • S2=Absorbance in the presence of the ACE inhibitory component, but without ACE [AU].

Substance	IC50 [µM]
KVLPVP [Lys-Val-Leu-Pro-Val-Pro]	5
Leu-Pro [LP]	> 1000
Leu-Pro-Val [LPV]	> 1000
Val-Leu-Pro [VLP]	120

More lines, now with the values ahead:

IC50 [µM]	Substance
1000	KVLPVPQ [Lys-Val-Leu-Pro-Val-Pro-Gln]
250	Leu-Pro-Val-Pro (LPVP; printed: Leu-Pro-Val-Pro)
